Measured values: PubChem BioAssay (NCI)
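All cell lines were grown in 96-well plates and treated with compound for 48 hours. Here, GI50 denotes the concentration required for 50% inhibition of growth. TGI is the concentration that stops growth completely.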

Key:
Assay in all cases: NCI anticancer screen, dose series, 48 h
HL-60(TB) leukemia = system: HL-60(TB) leukemia
SR leukemia = system: SR leukemia
HT29 colon = system: HT29 colon
OVCAR-4 ovarian = system: OVCAR-4 ovarian
MDA-MB-435 = system: MDA-MB-435
EKVX NSCLC = system: EKVX NSCLC
KM12 colon = system: KM12 colon
HOP-92 NSCLC = system: HOP-92 NSCLC
OVCAR-5 ovarian = system: OVCAR-5 ovarian
ACHN renal = system: ACHN renal
SF-295 CNS = system: SF-295 CNS
HS 578T breast = system: HS 578T breast
SK-OV-3 ovarian = system: SK-OV-3 ovarian
COLO 205 colon = system: COLO 205 colon
TK-10 renal = system: TK-10 renal
UO-31 renal = system: UO-31 renal
HOP-62 NSCLC = system: HOP-62 NSCLC
SW-620 colon = system: SW-620 colon
T-47D breast = system: T-47D breast
SF-539 CNS = system: SF-539 CNS
OVCAR-3 ovarian = system: OVCAR-3 ovarian
NCI-H226 lung = system: NCI-H226 lung
SNB-19 CNS = system: SNB-19 CNS
786-0 renal = system: 786-0 renal
CAKI-1 renal = system: CAKI-1 renal
MDA-MB-468 breast = system: MDA-MB-468 breast
PC-3 prostate = system: PC-3 prostate
HCT-116 colon = system: HCT-116 colon
NCI-H23 lung = system: NCI-H23 lung
A498 renal = system: A498 renal
M14 melanoma = system: M14 melanoma
IGROV1 ovarian = system: IGROV1 ovarian
HCT-15 colon = system: HCT-15 colon
SK-MEL-5 melanoma = system: SK-MEL-5 melanoma
MALME-3M melanoma = system: MALME-3M melanoma
LOX IMVI melanoma = system: LOX IMVI melanoma
SK-MEL-2 melanoma = system: SK-MEL-2 melanoma
U251 CNS = system: U251 CNS
SNB-75 CNS = system: SNB-75 CNS
MDA-MB-231 breast = system: MDA-MB-231 breast
SF-268 CNS = system: SF-268 CNS
RPMI-8226 leukemia = system: RPMI-8226 leukemia
UACC-62 melanoma = system: UACC-62 melanoma
HCC-2998 colon = system: HCC-2998 colon
CCRF-CEM leukemia = system: CCRF-CEM leukemia
SN12C renal = system: SN12C renal
OVCAR-8 ovarian = system: OVCAR-8 ovarian
A549 NSCLC = system: A549 NSCLC
BT-549 breast = system: BT-549 breast
SK-MEL-28 melanoma = system: SK-MEL-28 melanoma
NCI-H460 lung = system: NCI-H460 lung
MOLT-4 leukemia = system: MOLT-4 leukemia
K-562 leukemia = system: K-562 leukemia
UACC-257 melanoma = system: UACC-257 melanoma
NCI-H522 lung = system: NCI-H522 lung
RXF 393 renal = system: RXF 393 renal
DU-145 prostate = system: DU-145 prostate
NCI/ADR-RES ovarian = system: NCI/ADR-RES ovarian
MCF7 breast = system: MCF7 breast

COc1ccc(OC)c(-c2cc(-c3c[nH]c4ccccc34)nc(N)c2C#N)c1
GI50 (HL-60(TB) leukemia): 2420 nM | TGI (HL-60(TB) leukemia): 25.4 µM | GI50 (SR leukemia): 539 nM | TGI (SR leukemia): 21.2 µM | GI50 (HT29 colon): 2740 nM | TGI (HT29 colon): 12.3 µM | GI50 (OVCAR-4 ovarian): 5.42 µM | TGI (OVCAR-4 ovarian): 25.3 µM | GI50 (MDA-MB-435): 390 nM | TGI (MDA-MB-435): 1860 nM | GI50 (EKVX NSCLC): 1570 nM | TGI (EKVX NSCLC): 16.4 µM | GI50 (KM12 colon): 2710 nM | TGI (KM12 colon): 13.6 µM | GI50 (HOP-92 NSCLC): 1300 nM | TGI (HOP-92 NSCLC): 4.38 µM | GI50 (OVCAR-5 ovarian): 5.94 µM | TGI (OVCAR-5 ovarian): 21.8 µM | GI50 (ACHN renal): 4.92 µM | TGI (ACHN renal): 22.7 µM | GI50 (SF-295 CNS): 3.43 µM | TGI (SF-295 CNS): 13 µM | GI50 (HS 578T breast): 2170 nM | TGI (HS 578T breast): 8.13 µM | GI50 (SK-OV-3 ovarian): 3.63 µM | TGI (SK-OV-3 ovarian): 18 µM | GI50 (COLO 205 colon): 2810 nM | TGI (COLO 205 colon): 10.7 µM | GI50 (TK-10 renal): 11.1 µM | TGI (TK-10 renal): 33.7 µM | GI50 (UO-31 renal): 3.9 µM | TGI (UO-31 renal): 18.4 µM | GI50 (HOP-62 NSCLC): 2880 nM | TGI (HOP-62 NSCLC): 16.2 µM | GI50 (SW-620 colon): 2900 nM | TGI (SW-620 colon): 15.6 µM | GI50 (T-47D breast): 2180 nM | TGI (T-47D breast): 12.6 µM | GI50 (SF-539 CNS): 2900 nM | TGI (SF-539 CNS): 11.7 µM | GI50 (OVCAR-3 ovarian): 2940 nM | TGI (OVCAR-3 ovarian): 14.2 µM | GI50 (NCI-H226 lung): 5.81 µM | TGI (NCI-H226 lung): 20.5 µM | GI50 (SNB-19 CNS): 5.47 µM | TGI (SNB-19 CNS): 19.3 µM | GI50 (786-0 renal): 2610 nM | TGI (786-0 renal): 9.13 µM | GI50 (CAKI-1 renal): 1510 nM | TGI (CAKI-1 renal): 20.6 µM | GI50 (MDA-MB-468 breast): 65.9 nM | TGI (MDA-MB-468 breast): 369 nM | GI50 (PC-3 prostate): 1930 nM | TGI (PC-3 prostate): 15.5 µM | GI50 (HCT-116 colon): 2420 nM | TGI (HCT-116 colon): 13.2 µM | GI50 (NCI-H23 lung): 2820 nM | TGI (NCI-H23 lung): 15.2 µM | GI50 (A498 renal): 8.86 µM | TGI (A498 renal): 21.9 µM | GI50 (M14 melanoma): 1600 nM | TGI (M14 melanoma): 11.6 µM | GI50 (IGROV1 ovarian): 5.59 µM | TGI (IGROV1 ovarian): 23.1 µM | GI50 (HCT-15 colon): 903 nM | TGI (HCT-15 colon): 13.4 µM | GI50 (SK-MEL-5 melanoma): 804 nM | TGI (SK-MEL-5 melanoma): 4.18 µM | GI50 (MALME-3M melanoma): 3.25 µM | TGI (MALME-3M melanoma): 16.7 µM | GI50 (LOX IMVI melanoma): 2950 nM | TGI (LOX IMVI melanoma): 12.8 µM | GI50 (SK-MEL-2 melanoma): 2390 nM | TGI (SK-MEL-2 melanoma): 6.58 µM | GI50 (U251 CNS): 3.2 µM | TGI (U251 CNS): 13.8 µM | GI50 (SNB-75 CNS): 1300 nM | TGI (SNB-75 CNS): 5.14 µM | GI50 (MDA-MB-231 breast): 2060 nM | TGI (MDA-MB-231 breast): 12.6 µM | GI50 (SF-268 CNS): 3.63 µM | TGI (SF-268 CNS): 19 µM | GI50 (RPMI-8226 leukemia): 1950 nM | TGI (RPMI-8226 leukemia): > 100 µM | GI50 (UACC-62 melanoma): 2670 nM | TGI (UACC-62 melanoma): 13.5 µM | GI50 (HCC-2998 colon): 2980 nM | TGI (HCC-2998 colon): 13.9 µM | GI50 (CCRF-CEM leukemia): 2400 nM | TGI (CCRF-CEM leukemia): 28.8 µM | GI50 (SN12C renal): 5.06 µM | TGI (SN12C renal): 17.7 µM | GI50 (OVCAR-8 ovarian): 4.94 µM | TGI (OVCAR-8 ovarian): 18.2 µM | GI50 (A549 NSCLC): 3.74 µM | TGI (A549 NSCLC): 27.5 µM | GI50 (BT-549 breast): 1960 nM | TGI (BT-549 breast): 12.3 µM | GI50 (SK-MEL-28 melanoma): 3.46 µM | TGI (SK-MEL-28 melanoma): 17.8 µM | GI50 (NCI-H460 lung): 1580 nM | TGI (NCI-H460 lung): 13.2 µM | GI50 (MOLT-4 leukemia): 3.84 µM | TGI (MOLT-4 leukemia): 27 µM | GI50 (K-562 leukemia): 881 nM | TGI (K-562 leukemia): 82.3 µM | GI50 (UACC-257 melanoma): 9.47 µM | TGI (UACC-257 melanoma): 21.5 µM | GI50 (NCI-H522 lung): 736 nM | TGI (NCI-H522 lung): 7.28 µM | GI50 (RXF 393 renal): 1770 nM | TGI (RXF 393 renal): 10.4 µM | GI50 (DU-145 prostate): 8.2 µM | TGI (DU-145 prostate): 27.5 µM | GI50 (NCI/ADR-RES ovarian): 1220 nM | TGI (NCI/ADR-RES ovarian): 5.02 µM | GI50 (MCF7 breast): 135 nM | TGI (MCF7 breast): 12.5 µM
